We go through seven compounds from US20110124703A1, “MOLECULES COMPRISING A BIS(HETEROARYL)MALEIMIDE BACKBONE, AND USE THEREOF IN THE INHIBITION OF DDE/DDD ENZYMES” (priority 2008, published 2011).

Read-outs that look alike come from different tables or passages of the source.

In one assay the target is T1, MOS1-ITR complexes (Drosophila mauritiana, UniProt Q7JQ07).
T1 construct: made in house
Briefly: Electrophoretic mobility shift test (EMSA), assembly of MOS1-ITR complexes. The conditions noted are these: for IC50: MOS1-ITR bond. The arrangement: key to Assembly of complexes: +: complexes observed; −: absence of complexes; +/: traces of SEC1. Type of assay: binding. As to the method: The ITR30 was prepared and labeled as described above (8) with certain minor modifications: after labelling, the DNA was purified further on a native polyacrylamide gel. The binding reactions were carried out in 50 mM of NaCl, 0.5 mM of DTT, 10 mM of Tris (pH 9), 5% of glycerol and 100 ng of BSA. Each 20 μl reaction contained 0.2 pmol of ITR30 labelled with ^32P, […] of purified MBP-MOS1, 5 mM of EDTA, and 1 μl of the test compound (final concentration 400 μM) or DMSO. The mixtures were incubated at 30° C. for two hours. The complexes were separated using discontinuous native polyacrylamide gels with 4% to 6% of TBE 0.25× (acrylamide/bisacrylamide 30:0.93) containing 5% of glycerol. The gels were subjected to 200 V for 3 hours then autoradiographed.
The capacity of the ten molecules to inhibit the appearance of complexes formed in vitro between MOS1 and ITR 3′ (8) was tested using the gel mobility shift technique (EMSA). MOS1-ITR complexes were formed with a radiolabelled ITR 3′ (ITR30) in the presence of a 400 μM concentration of molecule. This concentration was at least 2.5 times higher than the highest IC50 value measured for the ten compounds.
Background: Mobility shift assays separate free from complexed probe on a gel.

In assay [1] the target is T2, MOS1 transposase (MBP-MOS1) (Drosophila mauritiana, UniProt Q7JQ07).
T2 construct: made in house
The assay is described as follows: In vitro transposition test. Type of assay: biochemical. The conditions noted are these: 80 μM compound; for Transposition frequencies: mean of at least five experiments; for Inhibition factors: ratio of transposition frequency with DMSO to that with compound. As to the method: The in vitro transposition reactions were carried out using pBC-3T3 both as the donor DNA and as the target, as was carried out previously for transposition tests in bacteria (16). The transposition reaction mixtures contained 10 mM of Tris-HCl (pH 9), 50 mM of NaCl, 0.5 mM of dithiothreitol, 20 mM of MgCl2, 0.5 mM of EDTA, 100 ng of BSA, 80 nM of MBP-MOS1 and 600 ng of supercoiled pBC-3T3 in a volume of 20 μl. Inhibitors (final concentration 80 μM) or DMSO were added to the reaction mixtures before the transposase. The reactions were carried out freely for 30 min at 30° C. then 10 μl of the stop solution (0.4% SDS, 0.4 μg/μl proteinase K) were added and the reaction mixtures were incubated at 37° C. for an additional 30 min, then at 65° C. for 10 min. The products were extracted with phenol-chloroform and precipitated in ethanol with 1 μg of yeast tRNA using conventional techniques. 10% of the reaction mixture was co-transformed with 0.01 ng of pBS-SK(−), used as a positive control for transformation (Stratagene), in 45 μl of electrocompetent Escherichia coli JM109 cells (2 mm cell, 1.5 kV in a MicroPulser™ from BioRad). The bacteria were cultivated at 37° C. for 1 hour in SOC medium. Appropriate dilutions of each reaction were spread on LB-ampicillin gelose (100 μg/ml) to evaluate the transformation efficacy and on LB-tetracyclin gelose (12.5 μg/ml) and LB-chloramphenicol gelose (80 μg/ml) in order to evaluate the frequency of transposition. The frequency of transposition is the number of Tet® colonies divided by the number of Chloram® colonies. The transformation efficacy was monitored from the number of Amp® colonies. The effect of the various compounds was expressed by calculating an inhibition factor (IF) such that IF=the frequency of transposition of the control (in DMSO) divided by the frequency of transposition obtained with the compound.
The transposition test was carried out using a purified MOS1 protein fused with the MBP and the pBC-3T3 plasmid carrying a pseudo-Mos1 transposon. In this test, pBC-3T3 was used as the pseudo-Mos1 donor, or as the target for integration of the transposon (16). […] The concentration of drugs used for the initial screening was 80 μM.

The next assay concerns the target T3, HIV-1 integrase (Human immunodeficiency virus type 1 group M subtype B, UniProt P04585).
T3 construct: made in house
The assay is described as follows: 3′ maturation and HIV-1 strand transfer tests. Type of assay: biochemical. As to the method: HIV-1 integrase was purified as described in (32). 200 nM of HIV-1 integrase was incubated in the presence of 6.25 nM of radiolabelled oligonucleotide duplex imitating the end of the LTR U5 in a buffer containing 20 mM of HEPES (pH 7.5), 10 mM of NaCl, 4 mM of DTT, 7.5 mM of MgCl2, 10% of DMSO and various concentrations of drugs. The reaction was carried out for 2 hours at 37° C. and the products were separated on an 18% acrylamide urea gel. The gel was scanned using a phosphorimager and analyzed using Image Quant (Molecular Dynamics) software. Each experiment was carried out in duplicate.
To verify whether the novel group of inhibitors (compounds 1 to 4) is also susceptible of blocking HIV-1 integrase, the activity of compound 4 was tested against the 3′ maturation and strand transfer activities of HIV-1 integrase. The percentage inhibition measured in the two independent experiments were traced as a function of the concentration of compound 4 (FIG. 10). […] It was also an excellent inhibitor of HIV-1 integrase. […] In consequence, MOS1 can be considered as a novel substitute for the identification of inhibitors of HIV-1 integrase.

Assay [2] addresses T2, MOS1 transposase (MBP-MOS1). The assay is described as follows: In vitro excision test. Format: biochemical. As to the method:
These tests were carried out under the same conditions as for the in vitro transposition tests, with the exception of the fact that the incubation was carried out at 37° C. instead of 30° C. In order to determine the IC50, a range of concentrations of the compound from 1000 to 0.8 μM was used as indicated in the text. After incubation, the reaction was interrupted by adding 2 μl of 10× loading buffer and the products were loaded directly onto a 0.8% TAE 1×-agarose gel containing ethidium bromide. The quantity of backbone liberated was evaluated using the GeneSnap system (SynGene). The percentage inhibition of excision was plotted as a function of the concentration of the compound. The experimental data were adjusted on a sigmoid dose-response curve using Prism software. Each experiment was repeated at least two times.
For a better characterization of the inhibiting activity of these ten compounds and their action mechanisms on the transposition of Mos1, the capacity of the chemical compounds to inhibit excision of the transposon was tested in vitro, using the pBC-3T3 transposon as a donor plasmid. MOS1 triggers excision of the transposon from a donor plasmid, generating two linear DNA fragments, the transposon (1.2 kb) and the plasmid backbone (3.4 kb). After excision, the transposon can be re-inserted in a target. The excision activity of the drug was measured by quantifying the plasmid backbone as it is a final product in the reaction. In the absence of a drug, the transposase released the transposon from the donor plasmid.
In order to determine the concentration of drug necessary to inhibit 50% of the reaction (IC50), the inhibition percentages measured from two independent experiments were plotted as a function of the concentration of drug (FIG. 3b). Similar experiments were carried out with the nine other chemical compounds and the corresponding IC50 values are shown in Table III.

T1 sequence (Q7JQ07 whole entry, one chain of several): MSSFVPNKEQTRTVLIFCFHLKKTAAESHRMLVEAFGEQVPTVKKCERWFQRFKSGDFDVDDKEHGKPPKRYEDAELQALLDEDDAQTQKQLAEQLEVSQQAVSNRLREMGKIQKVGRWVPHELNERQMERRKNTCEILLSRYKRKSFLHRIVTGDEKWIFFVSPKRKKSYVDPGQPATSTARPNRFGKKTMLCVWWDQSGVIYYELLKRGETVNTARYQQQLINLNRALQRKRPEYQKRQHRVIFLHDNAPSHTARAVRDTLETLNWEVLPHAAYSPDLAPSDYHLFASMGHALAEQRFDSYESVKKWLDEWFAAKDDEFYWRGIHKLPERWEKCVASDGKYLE
T2 sequence (Q7JQ07 whole entry): as the sequence (Q7JQ07 whole entry, one chain of several) above

On to `O=C(O)c1ccc(C2=C(c3ccc(C(=O)O)o3)C(=O)N(c3ccc(O)cc3)C2=O)o1` [Compound 2], for which, at MOS1-ITR complexes (400 μM compound), the Assembly of complexes entry is “−” and the “MOS1-ITR complexes in the presence of compound” value (shortened to “MOS1-ITR complexes … of compound”) is “completely destabilized”. In addition, on MOS1-ITR complexes, the IC50 was found to be 15 µM. Further, in assay [1], the Transposition frequencies is 1.2 × 10^−6 and the Inhibition factors stood at 33.
The like results for `CCOC(=O)C(Cc1ccccc1)N1C(=O)C(c2ccc(C(=O)O)o2)=C(c2ccc(C(=O)O)o2)C1=O` (stereo not drawn) [Compound 3] were, in that order, “−”, “completely destabilized”, 30 µM, 4.01 × 10^−6 and 100.
With `O=C/C=C/c1ccc(C2=C(c3ccc(/C=C/C=O)o3)C(=O)N(Cc3ccccc3)C2=O)o1` [Compound 4], on MOS1-ITR complexes (400 μM compound), the Assembly of complexes result is reported as “−” and the “MOS1-ITR complexes … of compound” value is “completely destabilized”. Further, at MOS1-ITR complexes, the IC50 turned out to be 12 µM. For the same compound, the “times more active against strand transfer activity than 3′ maturation” value on HIV-1 integrase is 10 times. Further, the IC50 at HIV-1 integrase (read-out: IC50 3′ maturation) was 70 µM. Besides, the IC50 at HIV-1 integrase (read-out: IC50 strand transfer activity) was 7 µM. Further, in assay [1], the Transposition frequencies is on record as 5.37 × 10^−6 and the Inhibition factors came out at 75.
As for `COc1ccc(C(c2c(O)c3ccccc3oc2=O)c2c(O)c3ccccc3oc2=O)cc1CSc1ccccn1` [Compound 7, reference compound], at MOS1-ITR complexes (400 μM compound), the Assembly of complexes entry is on record as “−” and the “MOS1-ITR complexes … of compound” value is listed as “completely destabilized”. In assay [1], the Transposition frequencies is reported as 4.85 × 10^−6 and the Inhibition factors was found to be 82.5.
The matching figures for `COc1cccc(OCCOc2cccc(CC3SC(=S)NC3=O)c2)c1` (stereo not drawn) [Compound 8, reference compound]: “−”, “completely destabilized”, 5.04 × 10^−6 and 79.
On to `O=C(Nc1ccccc1C(=O)O)c1cccc(NC(=O)C(c2ccccc2)c2ccccc2)c1` [Compound 9, reference compound], for which the “inhibition of MOS1-ITR complexes” value at MOS1-ITR complexes (400 μM compound) was 90%. In assay [1], the Transposition frequencies is listed as 1.64 × 10^−5 and the Inhibition factors came out at 25. Further, the IC50 in assay [2] was 150 µM. In addition, the “excision of the transposon” value in assay [2] (highest concentration of the drug (1 mM)) was “completely suppressed”.
Consider `O=C(O)C(Cc1ccccc1)N1C(=O)C(=CC=Cc2ccccc2)SC1=S` (stereo not drawn) [Compound 10, reference compound], for which, on MOS1-ITR complexes (400 μM compound), the Assembly of complexes entry is listed as “−” and the “MOS1-ITR complexes … of compound” value is “completely destabilized”. Further, in assay [1], the Transposition frequencies was 2.76 × 10^−6 and the Inhibition factors was 145. This compound also registered an IC50 in assay [2] of 35 µM.
